Data: article PMC6339874, “Anthranilic Acid Inhibitors of Undecaprenyl Pyrophosphate Synthase (UppS), an Essential Enzyme for Bacterial Cell Wall Biosynthesis” (Frontiers in Microbiology, 2019)
Converted amounts (≈) assume the structure as drawn.

Columns and labels:
[1] = target: T1, undecaprenyl pyrophosphate synthase (UppS) (Escherichia coli, UniProt P60472); assay: biochemical; set-up: radiolabeled [14C]-IPP UppS assay, TLC quantification of [14C]-UPP; residual activity or IC50; conditions: read-out: % of control remaining
T1 construct: gene ispU; N-terminal His6-tagged UppSEc
T1 sequence (P60472 1-253): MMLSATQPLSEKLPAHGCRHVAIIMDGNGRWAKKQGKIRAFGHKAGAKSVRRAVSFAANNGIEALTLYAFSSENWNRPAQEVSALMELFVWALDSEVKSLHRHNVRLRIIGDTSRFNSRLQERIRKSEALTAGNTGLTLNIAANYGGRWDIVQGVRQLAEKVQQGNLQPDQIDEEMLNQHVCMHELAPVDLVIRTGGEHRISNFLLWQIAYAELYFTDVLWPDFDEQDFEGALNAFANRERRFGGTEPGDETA
Description: The UppS enzymatic activity was determined by using a kinetics-based assay utilizing a radiolabeled substrate. The assay revolves on the measuring of UPP formation in the reaction mixture in a final volume of 40 μL. Stock solutions of all compounds (2 mM) were prepared in DMSO and the final concentration of DMSO in the assay was 5% (v/v). The enzyme was diluted in buffer A to appropriate concentration so that the consumption of the substrate in the assay is no higher than 30%. The reaction mixture consisted of 20 μL of 100 mM HEPES, pH 7.5, 50 mM KCl, 0.5 mM MgCl2, 1.5 μM FPP, 12 μM [^14C]-IPP ([^14C]-IPP; 289 Bq), 2 μL DMSO with or without the inhibitor and 18 μL of optimal enzyme solution. […] Reaction mixture was lyophilized and resuspended in 10 μL of purified water. The radiolabeled substrate, [^14C]-IPP, and the product, [^14C]UPP, were separated on a Silica gel 60 TLC plate using 1-propranol / ammonium hydroxide / water in ratio of 6/3/1 (v/v/v) as a mobile phase (Rf([^14C]–IPP) = 0.21, Rf[^14C]UPP = 0.56), and quantified with a radioactivity scanner (Rita Star, Raytest Isotopenmessgeräte GmbH, Straubenhardt, Germany). Residual activities (RAs) were calculated with respect to a control reaction without the tested compounds and with 5% DMSO. All the experiments were run in duplicate with standard deviations within ± 10%. The IC50 values represented the concentrations for which the RA was 50% and were determined by measuring the RAs at seven different compound concentrations. The 34 purchased compounds were tested for their inhibitory potencies against E. coli UppS using a radioactivity-based assay. In these test conditions, the [^14C]-UPP formation is observed thanks to a radiolabeled substrate ([^14C]-IPP) and quantified with a radioactivity scanner. The results are presented as RAs of UppS in the presence of 100 μM of each compound (Supplementary Table S1). […] Sodium risedronate was used as a positive control to enable the comparison of the purchased compounds to a known inhibitor and to confirm the results of the UppS inhibition assay. […] All three inhibitors are anthranilic acid derivatives with a larger hydrophobic moiety attached to the amide group via different linkers, 2-cyanoacryloyl for compounds 1 and 2 and 2-thioacetyl for compound 3.

E. coli = assay: microbe, parasite or virus in culture; set-up: antibacterial MIC determination on wild-type strains; conditions: Escherichia coli, read-out: MIC E. coli
Description: E. coli AcrAB-TolC is a tripartite multidrug efflux pump system that expels compounds form the cell and this represents one of the possible mechanisms of bacterial defence against xenobiotics ([Kim et al., 2015]). […] On the other hand, compound 2 inhibited bacterial growth in both E. coli BW25113 ΔtolC strains with or without permeable membrane (MIC = 0.5 μg/mL). The antibacterial activity in the efflux pump-deficient E. coli BW25113 ΔtolC strain is independent from the presence of polymyxine B. Therefore, it can be postulated on the basis of the evaluation of compound 2, that transport across E. coli cell membrane is possible. This compound therefore represents an interesting starting point for further development, for example computational searches of similar compounds and analog synthesis.

S. aureus = assay: microbe, parasite or virus in culture; set-up: antibacterial MIC determination on wild-type strains; conditions: Staphylococcus aureus, read-out: MIC S. aureus
[2] = target: T2, undecaprenyl pyrophosphate synthase (UppS) (Escherichia coli, UniProt P60472); assay: radiolabeled […]-IPP assay, TLC quantification of […]-UPP, IC50 from seven concentrations; type: biochemical
T2 construct: gene ispU; N-terminal His6-tagged UppSEc

SMILES	remaining activity at 100 µM [1] [%]	MIC (E. coli) [µg/mL]	MIC (S. aureus) [µg/mL]	IC50 [2] [µM]
CCCn1cc(NC(=O)CNS(=O)(=O)c2cccc3c(N(C)C)cccc23)c(C(=O)O)c1 [S7]	85	> 128	> 128	
N#C/C(=C\c1cn(Cc2cccc3ccccc23)c2ccccc12)C(=O)Nc1ccccc1C(=O)O [compound 1]		> 128	> 128	45
O=C(NCCc1ccccc1)c1ccc(NC(=O)c2nccnc2C(=O)O)cc1 [S30]	122	> 128	> 128	
Cc1cccc(C(=O)O)c1NC(=O)COc1ccc(Cl)cc1 [S32]	122	> 128	> 128	
Cc1ccc(Nc2nccc(Nc3ccc(O)c(C(=O)O)c3)n2)c(C)c1 [S9]	72	> 128	> 128	
O=C(O)c1ccccc1C(=O)NCCC(c1ccc(F)cc1)c1ccco1 (stereo not drawn) [S27]	99	> 128	> 128	
O=C(O)CCC(NC(=O)C(=Cc1cn(-c2ccccc2)nc1-c1cccnc1)NC(=O)c1ccccc1)C(=O)O (stereo not drawn) [S8]	92	> 128	> 128	
CCOc1ccc(N(CC(=O)Nc2ccccc2C(=O)O)S(=O)(=O)c2ccc(Cl)cc2)cc1 [S26]	102	> 128	128 (≈ 262 µM)	
O=C(CN1CCCC1C(=O)O)NCc1ccc(COc2ccccc2)cc1 (stereo not drawn) [S15]	124	> 128	> 128	
O=C(Nc1ccccc1C(=O)O)c1cccc(NC(=O)C(c2ccccc2)c2ccccc2)c1 [S14]	101	> 128	128 (≈ 284 µM)	
O=C(O)C1CC=CCC1C(=O)Nc1ccccc1C(=O)N1CCN(c2ccc(F)cc2)CC1 (stereo not drawn) [S19]	99	> 128	> 128	
Cc1cccc(N2CCN(c3ccc(NC(=O)C(C)C)c(C(=O)O)c3)CC2)c1 [S31]	125	> 128	> 128	
O=C(Cc1ccccc1C(=O)O)Nc1ccn(Cc2ccccc2Cl)n1 [S5]	115	> 128	> 128	
N#C/C(=C\c1cccc(OCc2ccc(F)cc2)c1)C(=O)Nc1ccccc1C(=O)O [compound 2]		> 128	> 128	25
O=C(Cn1cc(-c2ccc(Cl)cc2)ncc1=O)NC(C(=O)O)c1ccccc1 (stereo not drawn) [S29]	96	> 128	> 128	
Cc1ccc(N2CCN(C(=O)c3ccccc3NC(=O)C3CC=CCC3C(=O)O)CC2)cc1 (stereo not drawn) [S16]	104	> 128	> 128	
O=C(O)C1CCCCC1C(=O)Nc1ccc(N2CCN(c3cccc(Cl)c3Cl)CC2)cc1 (stereo not drawn) [S3]	96	> 128	> 128	

SMILES	remaining activity at 100 µM [1] [%]	MIC (E. coli) [µg/mL]	MIC (S. aureus) [µg/mL]	IC50 [2] [µM]
O=C(Nc1ccc(COCc2ccccc2)cc1)c1ccnc(C(=O)O)c1 [S22]	93	> 128	> 128	
Cc1ccc(-n2c(SCC(=O)Nc3ccccc3C(=O)O)nnc2-c2cc3ccccc3o2)cc1 [S18]	122	> 128	> 128	
Cc1ccc(OCCNC(=O)C2CC=CCC2C(=O)O)cc1 (stereo not drawn) [S23]	117	> 128	> 128	
Cc1cc(C)n(CCCNc2ccc(C(=O)c3ccccc3C(=O)O)cc2[N+](=O)[O-])n1 [S13]	92	> 128	> 128	
COC(=O)C(NC(=O)c1ccccc1C(=O)O)c1ccc(OCc2ccccc2)c(OC)c1 (stereo not drawn) [S33]	65	> 128	> 128	
CCCCCCCCCCCCN(CP(=O)(O)O)CP(=O)(O)O [S34]	147	> 128	128 (≈ 343 µM)	
O=C(O)c1ccccc1C(=O)Nc1ccc(C(=O)N(c2ccccc2)c2ccc3ccccc3c2)cc1 [S2]	58	> 128	> 128	
Cc1sc(NC(=O)c2ccccc2C(=O)O)nc1-c1ccc(-c2ccccc2)cc1 [S12]	120	> 128	> 128	
O=C(O)c1ccccc1C(=O)Nc1ccc(C(=O)N(c2ccccc2)c2cccc3ccccc23)cc1 [S11]	60	> 128	> 128	
O=C(COc1ccccc1)Nc1ccc(N2CCN(c3ccc(Cl)cc3)CC2)cc1C(=O)O [S25]	121	> 128	64 (≈ 137 µM)	
O=C(CSc1nnc(-c2cc3ccccc3o2)n1-c1ccccc1)Nc1ccccc1C(=O)O [compound 3]		> 128	> 128	24
O=C(O)c1cccc(C(=O)NCCc2nc3ccccc3n2C(F)F)c1 [S20]	168	> 128	> 128	
CC(=O)c1ccc(NC(=O)C(Sc2ccc(NC(=O)c3ccccc3C(=O)O)cc2)c2ccccc2)cc1 (stereo not drawn) [S4]	101	> 128	> 128	
CCCc1ccc(S(=O)(=O)Nc2ccc(N3CCN(C4CCCCC4)CC3)cc2C(=O)O)cc1 [S28]	113	> 128	> 128	
COc1ccc(C(=O)Nc2ccc(N3CCN(c4ccccc4F)CC3)cc2C(=O)O)cc1 [S21]	74	> 128	> 128	
O=C(O)C1CCCCC1C(=O)Nc1ccc(N2CCN(Cc3ccccc3)CC2)cc1 (stereo not drawn) [S6]	53	> 128	> 128	
